The results in this text go back to patent publication US20230322846A9, “NEUROACTIVE STEROIDS AND THEIR METHODS OF USE” (SAGE THERAPEUTICS, INC., priority 2018, published 2023).

As a reminder, the IC50 is the point on the concentration scale where inhibition reaches its midpoint.

Each structure is given as a SMILES string.

This assay concerns the target [35S]-TBPS binding, rat brain cortical membranes. In words: Steroid inhibition of [35S]-TBPS binding. Particulars: 3 nM [35S]-TBPS, in the presence of 5 mM GABA. An outline of the steps: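 In the presence of […], compounds (DMSO 0.5% final) competed with 3 nM [35S]-TBPS for Sprague-Dawley rat cortical membranes, pH 7.4 phosphate buffer, 90 min, room temperature. Filtration and scintillation counting; specific binding defined by […]; IC50 and maximal inhibition fitted per experiment, averaged as mean ± SEM.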

As to `C[C@H]([C@H]1CC[C@H]2[C@@H]3CC[C@@H]4C[C@](C)(O)CC[C@@H]4[C@H]3CC[C@]12C)N(C)c1ccccc1` [Example 38, (3R,5R,8R,9R,10S,13S,14S,17S)-3,13-dimethyl-17-((R)-1-(methyl(phenyl)amino)ethyl)hexadecahydro-1H-cyclopenta[a]phenanthren-3-ol], the half-maximal inhibitory concentration (IC50) was in the range of 100 to 1000 nM.
Consider `CCOC[C@@]1(O)CC[C@H]2[C@H](CC[C@@H]3[C@@H]2CC[C@]2(C)[C@@H]([C@H](CC)Nc4ccc(C#N)nc4)CC[C@@H]32)C1` [Example 493, 5-(((S)-1-((3R,5R,8R,9R,10S,13S,14S,17S)-3-(ethoxymethyl)-3-hydroxy-13-methylhexadecahydro-1H-cyclopenta[a]phenanthren-17-yl)propyl)amino)picolinonitrile], for which the IC50 lay in the range of 1000 to 10000 nM.
On to `C[C@@H](Cc1nccc(C#N)n1)[C@H]1CC[C@H]2[C@@H]3CC[C@@H]4C[C@](C)(O)CC[C@@H]4[C@H]3CC[C@]12C` [Example 435], for which the concentration for half-maximal inhibition (IC50) is less than 100 nM.
In the case of `CCOC[C@@]1(O)CC[C@H]2[C@H](CC[C@@H]3[C@@H]2CC[C@]2(C)[C@@H]([C@@H](Nc4ccc(C#N)cc4C)C(F)(F)F)CC[C@@H]32)C1` [Example 488, 4-(((R)-1-((3R,5R,8R,9R,10S,13S,14S,17S)-3-(ethoxymethyl)-3-hydroxy-13-methylhexadecahydro-1H-cyclopenta[a]phenanthren-17-yl)-2,2,2-trifluoroethyl)amino)-3-methylbenzonitrile], the IC50 lay in the range of 1000 to 10000 nM.
`CC[C@@]1(O)CC[C@@]2(C)[C@H](CC[C@@H]3[C@@H]2CC[C@]2(C)[C@@H]([C@@H](C)Cn4nccc4C#N)CC[C@@H]32)C1` [Example 63, 1-((R)-2-((3R,5R,8R,9S,10S,13S,14S,17R)-3-ethyl-3-hydroxy-10,13-dimethylhexadecahydro-1H-cyclopenta[a]phenanthren-17-yl)propyl)-1H-pyrazole-5-carbonitrile]: the IC50 is less than 100 nM.
As for `C[C@H](Cn1nccn1)[C@H]1CC[C@H]2[C@@H]3CC[C@H]4C[C@](C)(O)CC[C@@H]4[C@H]3CC[C@]12C` [Example 58, (3R,5S,8R,9R,10S,13S,14S,17R)-17-((S)-1-(2H-1,2,3-triazol-2-yl)propan-2-yl)-3,13-dimethylhexadecahydro-1H-cyclopenta[a]phenanthren-3-ol], the IC50 fell in the range of 1000 to 10000 nM.
The figure for `COC[C@@]1(O)CC[C@H]2[C@H](CC[C@@H]3[C@@H]2CC[C@]2(C)[C@@H]([C@H](C)NC(=O)c4ccc(OC(F)(F)F)cc4)CC[C@@H]32)C1` [Example 112] is 100 to 1000 nM.
Regarding `COC[C@@]1(O)CC[C@H]2[C@H](CC[C@@H]3[C@@H]2CC[C@]2(C)[C@@H]([C@H](C)NC(=O)c4ccc(F)cc4F)CC[C@@H]32)C1` [Example 135], the IC50 lay within 1000 to 10000 nM.
`CCCC[C@@]1(O)CC[C@H]2[C@H](CC[C@@H]3[C@@H]2CC[C@]2(C)[C@@H]([C@H](C)Cn4cc(C#N)cn4)CC[C@@H]32)C1` [Example 312]: the IC50 was less than 100 nM.
The figure for `COC[C@@]1(O)CC[C@H]2[C@@H](CC[C@@H]3[C@@H]2CC[C@]2(C)[C@@H](CCn4ccnn4)CC[C@@H]32)C1` [Example 298, (3R,5S,8R,9R,10S,13R,14S,17R)-17-(2-(1H-1,2,3-triazol-1-yl)ethyl)-3-(methoxymethyl)-13-methylhexadecahydro-1H-cyclopenta[a]phenanthren-3-ol] is less than 100 nM; for `CCOC[C@@]1(O)CC[C@@]2(C)[C@H](CC[C@H]3C4CC[C@H]([C@@H](C)Nc5ccc(-n6ccc(C#N)n6)cn5)[C@@]4(C)CC[C@@H]32)C1` (stereo partly shown) [Example 502] it is 100 to 1000 nM.
The figure for `CCC[C@@]1(O)CC[C@@]2(C)[C@H](CC[C@@H]3[C@@H]2CC[C@]2(C)[C@@H]([C@@H](C)Cn4nnc(C)n4)CC[C@@H]32)C1` [Example 313, (3R,5R,8R,9S,10S,13S,14S,17R)-10,13-dimethyl-17-((R)-1-(5-methyl-2H-tetrazol-2-yl)propan-2-yl)-3-propylhexadecahydro-1H-cyclopenta[a]phenanthren-3-ol] is less than 100 nM; for `C[C@@H](Nc1cccnc1)[C@H]1CC[C@H]2[C@@H]3CC[C@@H]4C[C@](C)(O)CC[C@@H]4[C@H]3CC[C@]12C` [Example 203] it is less than 100 nM.
In the case of `C[C@@]1(O)CC[C@H]2[C@H](CC[C@@H]3[C@@H]2CC[C@]2(C)[C@@H](CN4C[C@@H](c5ccccc5)CC4=O)CC[C@@H]32)C1` [Example 9, (R)-1-(((3R,5R,8R,9R,10S,13S,14S,17S)-3-hydroxy-3,13-dimethylhexadecahydro-1H-cyclopenta[a]phenanthren-17-yl)methyl)-4-phenylpyrrolidin-2-one] it was 100 to 1000 nM.
In the case of `COC[C@@]1(O)CC[C@H]2[C@H](CC[C@@H]3[C@@H]2CC[C@]2(C)[C@@H]([C@@H](C)NS(=O)(=O)c4cccc(C#N)n4)CC[C@@H]32)C1` [Example 75], the IC50 is less than 100 nM.
The figure for `C[C@@]1(O)CC[C@H]2[C@H](CC[C@@H]3[C@@H]2CC[C@]2(C)[C@@H](CNC(=O)c4ccccc4)CC[C@@H]32)C1` [Example 3, N-(((3R,5R,8R,9R,10S,13S,14S,17S)-3-hydroxy-3,13-dimethylhexadecahydro-1H-cyclopenta[a]phenanthren-17-yl)methyl)benzamide] is less than 100 nM.
In the case of `COC[C@@]1(O)CC[C@H]2[C@H](CC[C@@H]3[C@@H]2CC[C@]2(C)[C@@H](CCn4ccnn4)CC[C@@H]32)C1` [Example 50, (3R,5R,8R,9R,10S,13R,14S,17R)-17-(2-(1H-1,2,3-triazol-1-yl)ethyl)-3-(methoxymethyl)-13-methylhexadecahydro-1H-cyclopenta[a]phenanthren-3-ol], the half-inhibitory concentration (IC50) was less than 100 nM.
In the case of `CCC[C@@]1(O)CC[C@@]2(C)[C@H](CC[C@@H]3[C@@H]2CC[C@]2(C)[C@@H]([C@@H](C)Cn4cc(C#N)cn4)CC[C@@H]32)C1` [Example 307, 1-((R)-2-((3R,5R,8R,9S,10S,13S,14S,17R)-3-hydroxy-10,13-dimethyl-3-propylhexadecahydro-1H-cyclopenta[a]phenanthren-17-yl)propyl)-1H-pyrazole-4-carbonitrile] it was less than 100 nM; in that of `COC[C@@]1(O)CC[C@H]2[C@H](CC[C@@H]3[C@@H]2CC[C@]2(C)[C@@H]([C@H](C)NC(=O)c4ccc(F)cn4)CC[C@@H]32)C1` [Example 126], 1000 to 10000 nM; in that of `COC[C@@]1(O)CC[C@H]2[C@H](CC[C@@H]3[C@@H]2CC[C@]2(C)[C@@H](CCn4ccc(C#N)n4)CC[C@@H]32)C1` [Example 87, 1-(2-((3R,5R,8R,9R,10S,13R,14S,17R)-3-hydroxy-3-(methoxymethyl)-13-methylhexadecahydro-1H-cyclopenta[a]phenanthren-17-yl)ethyl)-1H-pyrazole-3-carbonitrile], less than 100 nM.
On to `Cc1cncc(C[C@@H](C)[C@H]2CC[C@H]3[C@@H]4CC[C@@H]5C[C@](C)(O)CC[C@@H]5[C@H]4CC[C@]23C)c1` [Example 434], for which the IC50 fell in the range of 100 to 1000 nM.
As for `C[C@H](NC(=O)c1ccccc1F)[C@H]1CC[C@H]2[C@@H]3CC[C@@H]4C[C@](C)(O)CC[C@@H]4[C@H]3CC[C@]12C` [Example 102], the half-inhibitory concentration (IC50) was 1000 to 10000 nM.
In the case of `CC[C@H](Nc1cccc(C#N)c1)[C@H]1CC[C@H]2[C@@H]3CC[C@@H]4C[C@@](O)(COC)CC[C@@H]4[C@H]3CC[C@]12C` [Example 496, 3-(((S)-1-((3R,5R,8R,9R,10S,13S,14S,17S)-3-hydroxy-3-(methoxymethyl)-13-methylhexadecahydro-1H-cyclopenta[a]phenanthren-17-yl)propyl)amino)benzonitrile], the half-maximal inhibitory concentration (IC50) lay within 100 to 1000 nM.
As to `C[C@H](NC(=O)c1ccccn1)[C@H]1CC[C@H]2[C@@H]3CC[C@@H]4C[C@](C)(O)CC[C@@H]4[C@H]3CC[C@]12C` [Example 101], the half-inhibitory concentration (IC50) was in the range of 1000 to 10000 nM.
The figure for `COC[C@@]1(O)CC[C@H]2[C@H](CC[C@@H]3[C@@H]2CC[C@]2(C)[C@@H]([C@@H](C)n4cc(C#N)cn4)CC[C@@H]32)C1` [Example 150, 1-((R)-1-((3R, 5R, 8R, 9R, 10S, 135, 145, 17S)-3-hydroxy-3-(methoxymethyl)-13-methylhexadecahydro-1H-cyclopenta[a]phenanthren-17-yl)ethyl)-1H-pyrazole-4-carbonitrile] is less than 100 nM.
The figure for `C[C@@H](NC(=O)c1ccc(C#N)cc1)[C@H]1CC[C@H]2[C@@H]3CC[C@@H]4C[C@](C)(O)CC[C@@H]4[C@H]3CC[C@]12C` [Example 108] is 100 to 1000 nM; for `CCOC[C@@]1(O)CC[C@H]2[C@H](CC[C@@H]3[C@@H]2CC[C@]2(C)[C@@H]([C@@H](CC)Nc4cccc(C#N)c4)CC[C@@H]32)C1` [Example 492, 3-(((R)-1-((3R,5R,8R,9R,10S,13S,14S,17S)-3-(ethoxymethyl)-3-hydroxy-13-methylhexadecahydro-1H-cyclopenta[a]phenanthren-17-yl)propyl)amino)benzonitrile] it is 1000 to 10000 nM.
On to `CCOC[C@@]1(O)CC[C@H]2[C@H](CC[C@@H]3[C@@H]2CC[C@]2(C)[C@@H]([C@@H](C)NS(=O)(=O)c4ccc(C#N)cn4)CC[C@@H]32)C1` [Example 73], for which the IC50 was less than 100 nM.
